Assay results published in ChEMBL document CHEMBL1287710, “A novel small-molecule inhibitor of IL-6 signalling” (Bioorg Med Chem Lett, 2010).
Activity calls are given as the source filed them. The rule behind the calls is not given here.

What was measured:
[1] = molecular target: Signal transducer and activator of transcription 3 (Homo sapiens) (UniProt P40763); experiment: Inhibition of IL-6 induced STAT3 phosphorylation at tyrosine 705 residue in serum-starved human HeLa cells at 10 to 30 uM after 20 mins by Western blot analysis; format: cell-based
Signal transducer and activator of transcription 3 (Homo sapiens), sequence (P40763 whole entry): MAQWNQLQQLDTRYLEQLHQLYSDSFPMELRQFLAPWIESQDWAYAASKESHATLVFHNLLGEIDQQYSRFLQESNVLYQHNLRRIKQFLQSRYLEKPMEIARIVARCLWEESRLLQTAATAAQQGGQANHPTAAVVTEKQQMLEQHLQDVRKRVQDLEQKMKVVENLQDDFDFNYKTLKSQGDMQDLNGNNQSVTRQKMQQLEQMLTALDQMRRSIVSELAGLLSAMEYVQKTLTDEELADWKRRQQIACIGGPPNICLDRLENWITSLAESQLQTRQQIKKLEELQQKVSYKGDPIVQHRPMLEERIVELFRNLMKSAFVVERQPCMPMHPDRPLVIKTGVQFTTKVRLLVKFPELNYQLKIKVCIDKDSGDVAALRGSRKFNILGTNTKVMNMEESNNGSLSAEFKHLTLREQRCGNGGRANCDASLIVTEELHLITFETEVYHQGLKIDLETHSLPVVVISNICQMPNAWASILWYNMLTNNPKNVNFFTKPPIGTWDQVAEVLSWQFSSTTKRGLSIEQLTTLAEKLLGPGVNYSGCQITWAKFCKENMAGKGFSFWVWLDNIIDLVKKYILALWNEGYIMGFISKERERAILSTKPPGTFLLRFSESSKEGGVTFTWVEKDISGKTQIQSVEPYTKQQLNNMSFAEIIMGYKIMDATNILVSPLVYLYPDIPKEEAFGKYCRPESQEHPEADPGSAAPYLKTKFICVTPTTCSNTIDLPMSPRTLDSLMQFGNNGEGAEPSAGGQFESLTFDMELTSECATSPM

[2] = molecular target: Signal transducer and activator of transcription 3 (Homo sapiens) (UniProt P40763); experiment: Inhibition of IL-6 induced STAT3 phosphorylation at tyrosine 705 residue in serum-starved human MDA-MB-231 cells at 30 to 100 uM after 20 mins by Western blot analysis; format: cell-based
[3] = molecular target: Signal transducer and activator of transcription 3 (Homo sapiens) (UniProt P40763); experiment: Inhibition of STAT3 in human HeLa cells at 5 to 100 uM by luciferase reporter assay; format: cell-based
[4] = molecular target: T1, Signal transducer and activator of transcription 1-alpha/beta (Homo sapiens) (UniProt P42224); experiment: Induction of STAT1 phosphorylation in human HeLa cells at 30 to 100 uM by Western blot analysis; format: cell-based
T1 sequence (whole entry): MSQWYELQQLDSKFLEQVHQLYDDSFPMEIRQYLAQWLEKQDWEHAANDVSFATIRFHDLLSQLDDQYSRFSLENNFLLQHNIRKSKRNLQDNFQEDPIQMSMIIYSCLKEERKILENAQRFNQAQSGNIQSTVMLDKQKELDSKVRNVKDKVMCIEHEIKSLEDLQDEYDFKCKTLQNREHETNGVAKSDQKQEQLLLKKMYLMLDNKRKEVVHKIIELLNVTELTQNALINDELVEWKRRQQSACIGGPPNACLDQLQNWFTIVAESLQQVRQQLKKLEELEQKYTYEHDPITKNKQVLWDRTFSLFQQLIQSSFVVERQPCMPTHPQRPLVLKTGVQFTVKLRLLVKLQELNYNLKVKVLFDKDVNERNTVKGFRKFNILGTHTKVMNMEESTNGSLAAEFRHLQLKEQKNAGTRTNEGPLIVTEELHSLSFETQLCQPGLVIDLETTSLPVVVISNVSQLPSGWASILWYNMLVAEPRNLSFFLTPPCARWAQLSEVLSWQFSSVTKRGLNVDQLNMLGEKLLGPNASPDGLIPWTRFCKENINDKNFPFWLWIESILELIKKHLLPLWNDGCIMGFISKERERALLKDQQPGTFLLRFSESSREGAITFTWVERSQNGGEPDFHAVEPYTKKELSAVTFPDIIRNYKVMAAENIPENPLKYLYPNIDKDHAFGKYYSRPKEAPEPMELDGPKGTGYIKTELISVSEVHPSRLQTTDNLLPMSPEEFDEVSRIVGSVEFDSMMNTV

MDA-MB-231 = experiment: Cytostatic activity against human MDA-MB-231 cells assessed as cell viability after 24 hrs by trypan blue assay; format: functional, cell-based
[5] = molecular target: Signal transducer and activator of transcription 3 (Homo sapiens) (UniProt P40763); experiment: Inhibition of STAT3 in IL-6-stimulated human MDA-MB-231 cells assessed as reduction in cell viability up to 125 uM after 24 hrs by MTS assay; format: cell-based

Cc1ccc(-c2sc(C(=O)NCc3cccs3)cc2S(=O)(=O)N2CCCC2)cc1
Activity [1]: Active | Activity [2]: Active | Activity [3]: 15 µM | Activity [4]: Active | Activity (MDA-MB-231): inactive | inhibition [5]: 40%
